Results taken from ChEMBL document CHEMBL1151958, “Improving metabolic stability by glycosylation: bifunctional peptide derivatives that are opioid receptor agonists and neurokinin 1 receptor antagonists” (J Med Chem, 2009).

Experiments:
Mu-type opioid receptor = Mu-type opioid receptor (Rattus norvegicus, UniProt P33535); experiment: Displacement of [3H]DAMGO from rat mu opioid receptor expressed in mouse HN9.10 cell membrane; type: cell membranes
Substance-P receptor [1] = target: Substance-P receptor (Homo sapiens, UniProt P25103); experiment: Displacement of [3H]substance P from human NK1 receptor expressed in CHO cell membrane; type: cell membranes
Chain of Substance-P receptor (Homo sapiens, UniProt P25103) (P25103 whole entry): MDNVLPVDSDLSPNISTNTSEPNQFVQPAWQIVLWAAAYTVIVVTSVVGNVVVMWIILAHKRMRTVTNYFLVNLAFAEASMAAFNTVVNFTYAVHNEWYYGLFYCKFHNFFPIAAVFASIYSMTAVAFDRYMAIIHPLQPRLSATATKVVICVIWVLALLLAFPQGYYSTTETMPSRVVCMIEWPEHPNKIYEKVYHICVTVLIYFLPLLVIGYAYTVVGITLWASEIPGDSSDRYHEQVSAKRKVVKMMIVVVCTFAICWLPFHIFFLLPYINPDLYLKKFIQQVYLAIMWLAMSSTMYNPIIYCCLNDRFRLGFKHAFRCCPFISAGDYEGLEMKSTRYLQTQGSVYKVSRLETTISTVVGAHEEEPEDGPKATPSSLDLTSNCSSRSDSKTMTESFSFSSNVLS

[2] = Metabolic stability in rat plasma assessed as half life at 37 degC; type: ADME, cell-free
[3] = target: Delta-type opioid receptor (Homo sapiens, UniProt P41143); experiment: Displacement of [3H]DPDPE from human delta opioid receptor expressed in mouse HN9.10 cell membrane; type: cell membranes
Chain of Delta-type opioid receptor (P41143 whole entry): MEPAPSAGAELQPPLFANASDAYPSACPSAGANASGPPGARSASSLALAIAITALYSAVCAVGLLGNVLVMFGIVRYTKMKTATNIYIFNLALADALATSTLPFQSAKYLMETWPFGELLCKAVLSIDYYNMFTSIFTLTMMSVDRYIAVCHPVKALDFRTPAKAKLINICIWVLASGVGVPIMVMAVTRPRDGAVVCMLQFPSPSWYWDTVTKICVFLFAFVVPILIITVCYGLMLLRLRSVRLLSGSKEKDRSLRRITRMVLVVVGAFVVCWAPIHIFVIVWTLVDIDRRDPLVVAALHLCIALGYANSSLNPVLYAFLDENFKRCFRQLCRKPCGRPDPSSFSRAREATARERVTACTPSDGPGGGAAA

Substance-P receptor [4] = target: Substance-P receptor (Rattus norvegicus, UniProt P14600); experiment: Displacement of [3H]substance P from rat NK1 receptor expressed in CHO cell membrane; type: cell membranes
Chain of Substance-P receptor (Rattus norvegicus, UniProt P14600) (P14600 whole entry): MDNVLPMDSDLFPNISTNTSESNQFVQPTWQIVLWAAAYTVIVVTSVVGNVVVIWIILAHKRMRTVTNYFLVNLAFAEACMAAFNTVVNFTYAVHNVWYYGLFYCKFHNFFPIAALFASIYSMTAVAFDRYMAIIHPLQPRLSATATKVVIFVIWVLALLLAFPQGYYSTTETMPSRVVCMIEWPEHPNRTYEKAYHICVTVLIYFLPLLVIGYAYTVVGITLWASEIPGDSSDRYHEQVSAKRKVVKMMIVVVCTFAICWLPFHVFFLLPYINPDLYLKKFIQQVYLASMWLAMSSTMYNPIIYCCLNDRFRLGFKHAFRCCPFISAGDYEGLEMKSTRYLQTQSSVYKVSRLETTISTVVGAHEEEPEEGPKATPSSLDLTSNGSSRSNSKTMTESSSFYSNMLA

Chain of Mu-type opioid receptor (P33535 whole entry): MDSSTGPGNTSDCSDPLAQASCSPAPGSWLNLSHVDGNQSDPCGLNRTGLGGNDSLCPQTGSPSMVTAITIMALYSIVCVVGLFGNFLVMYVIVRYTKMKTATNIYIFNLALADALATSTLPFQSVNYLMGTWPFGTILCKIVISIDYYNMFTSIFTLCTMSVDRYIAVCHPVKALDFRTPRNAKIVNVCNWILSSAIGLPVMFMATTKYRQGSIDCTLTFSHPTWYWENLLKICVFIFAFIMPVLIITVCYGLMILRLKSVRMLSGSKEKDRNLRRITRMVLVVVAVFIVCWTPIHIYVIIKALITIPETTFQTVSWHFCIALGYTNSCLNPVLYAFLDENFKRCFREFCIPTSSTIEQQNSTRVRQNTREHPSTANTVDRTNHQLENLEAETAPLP

| SMILES | IC50 (Mu-type opioid receptor) [nM] | IC50 (Substance-P receptor [1]) [nM] | half-life [2] [h] | IC50 [3] [nM] | IC50 (Substance-P receptor [4]) [nM] |
| --- | --- | --- | --- | --- | --- |
| CCCC[C@H](NC(=O)[C@H](Cc1ccccc1)NC(=O)CNC(=O)[C@@H](C)NC(=O)[C@@H](N)Cc1ccc(O)cc1)C(=O)N[C@@H](CO[C@@H]1O[C@H](CO)[C@@H](O)[C@H](O)[C@H]1O)C(=O)N[C@@H](CC(C)C)C(=O)N[C@@H](Cc1c[nH]c2ccccc12)C(=O)NCc1cc(C(F)(F)F)cc(C(F)(F)F)c1 | 7080 | 4.17 | – | – | – |
| CCCC[C@H](NC(=O)[C@H](Cc1ccccc1)NC(=O)CNC(=O)[C@@H](C)NC(=O)[C@@H](N)Cc1ccc(O)cc1)C(=O)N1CCC[C@H]1C(=O)N[C@@H](CO[C@@H]1O[C@H](CO)[C@@H](O)[C@H](O)[C@H]1O)C(=O)N[C@@H](Cc1c[nH]c2ccccc12)C(=O)NCc1cc(C(F)(F)F)cc(C(F)(F)F)c1 | 17 | – | > 6 | 7.94 | 50.1 |
| CC(C)C[C@H](NC(=O)[C@@H]1CCCN1C(=O)[C@H](CO[C@@H]1O[C@H](CO)[C@@H](O)[C@H](O)[C@H]1O)NC(=O)[C@H](Cc1ccccc1)NC(=O)CNC(=O)[C@@H](C)NC(=O)[C@@H](N)Cc1ccc(O)cc1)C(=O)N[C@@H](Cc1c[nH]c2ccccc12)C(=O)NCc1cc(C(F)(F)F)cc(C(F)(F)F)c1 | 759 | 0.000617 | – | 123 | 4.47 |
| CCCC[C@H](NC(=O)[C@H](Cc1ccccc1)NC(=O)CNC(=O)[C@@H](C)NC(=O)[C@@H](N)Cc1ccc(O)cc1)C(=O)N1CCC[C@H]1C(=O)N[C@@H](CC(C)C)C(=O)N[C@@H](Cc1c[nH]c2ccccc12)C(=O)NCc1cc(C(F)(F)F)cc(C(F)(F)F)c1 | – | 0.00269 | > 6 | 2.14 | – |
